Reference: patent publication US4216226A (priority 1977, dated 1980)
Where a name gives a salt, the structure may show the parent alone. Read-outs that look alike come from different tables or passages of the source.

Columns and labels:
[1] = test system: Newcastle disease virus (NDV) Miyadera strain; format: cell-based
[2] = test system: Vesicular stomatitis virus (VSV); format: cell-based
[3] = test system: Infectious pancrease necrosis virus (IPNV); format: cell-based
[4] = test system: Influenza virus A-O/PR-8 strain; format: cell-based
[5] = test system: Vaccinia virus Lister strain; format: cell-based
Herpes virus = format: cell-based
in vitro [6] = details: human, hela s3 cells
in vitro [7] = details: rainbow trout, rtg-2 cells
Influenza virus = format: cell-based
viruses = details: cited from earlier work
[8] = test system: IPNV (infectious pancreas necrosis virus); experiment: Preventing IPN virus in fish; format: in vivo, rainbow trout; details: 16 ppm water bath 96 hours, 18° C.; for Cumulative number of dying fish: 20 fish
Method: 40 Young (4-6 cm in body length) rainbow trout were sensitised by immersion for 3 hours under aeration in 7.5 liters of a water bath containing IPNV (infectious pancreas necrosis virus) which was prepared by diluting to a 1000-fold volume a cell stock of IPNV (virus titer: 10^6.301 TCID50 /ml) cultured in RTG-2 cells. Immediately after this sensitisation, the fish were divided into two groups each comprising 20 fish and each group was placed in two glass vessels containing 50 liters of water, respectively. The first group of fish was the treated group, while the second group of fish was the control group (untreated).
After the first group of fish was placed in the water-containing vessel, L-hydroxyureidomethyl glycine was dissolved in the water to a concentration of 16 ppm. in this vessel, whereupon the fish were treated during 96 hours with the water bath containing the active compound. Thereafter, the active solution of the bath was replaced by fresh water containing no active compound, and the fish were observed daily to count the number of the young fish which fell dead. The active compound was not added to the water in the second vessel containing the second group of fish (control group), although replacement of water was made in the second vessel. In this way, the effect of L-hydroxyureidomethyl glycine in preventing IPNV infection was estimated. All of the tests were conducted in the water at 18° C.

[9] = test system: Influenza virus A0 /PR-8 strain; format: in vivo, mice of the ICR strain; details: intraperitoneal, twice a day for 3 days, mouse lung at 72 hours
[10] = test system: vaccinia virus Lister strain; format: in vivo, mice of the ICR strain; details: subcutaneous, 4 times first day, twice a day days 2-5, 10th day
mice = details: mouse, in vivo, ip
[11] = test system: Newcastle disease virus Sato strain; format: in vivo, embryonated chick egg; details: for MDT (difference from control): Sato strain, 104 hours incubation
[12] = test system: Newcastle disease virus Miyadera strain; format: in vivo, embryonated chick egg; details: for MDT (difference from control): Miyadera strain, 104 hours incubation
[13] = test system: Newcastle disease virus I(1) strain; format: in vivo, embryonated chick egg; details: 104 hours incubation
[14] = test system: Newcastle disease virus Komarov strain; format: in vivo, embryonated chick egg; details: for MDT (difference from control): Komarov strain, 104 hours incubation
[15] = HeLa S3 cell, 37° C., 5-7 days, at MDC, 1/2 or 1/4 MDC, vs control
[16] = L-929 cell, 37° C., 5-7 days, at MDC, 1/2 or 1/4 MDC, vs control
[17] = Vero cell, 37° C., 5-7 days, at MDC, 1/2 or 1/4 MDC, vs control

SMILES | Difference of -log TCID50 /ml, IPNV [3] | MCC (in vitro [6]) | MCC (in vitro [7]) | Difference of -log TCID50 /ml, NDV [1, 15] | Difference of -log TCID50 /ml, VSV [2, 16] | Difference of -log TCID50 /ml, Influenza virus [4, 17] | also measured
NC(CCP(=O)(O)O)C(=O)O (racemic) [DL-phosphonoethyl glycine] | 1.30 | 250 µg/mL | 4000 µg/mL |  |  |  | Difference of -log TCID50 /ml, NDV [1]: 1.50; Difference of -log TCID50 /ml, VSV [2]: 0.50; Difference of -log TCID50 /ml, Influenza virus [4]: 1.00; Difference of -log TCID50 /ml, Vaccinia virus [5]: 1.17; Difference of -log TCID50 /ml, Herpes virus (Herpes virus; Hep No. 2 cell, 37° C., 5-7 days, at MDC, 1/2 or 1/4 MDC, vs control): 0.50
NCC(N)C(=O)O (racemic) [DL-Aminomethyl glycine hydrochloride] |  | > 1000 µg/mL | 3000 µg/mL | 1.50 | 0.33 | 1.00 | Difference of -log TCID50 /ml, Vaccinia virus [5, 15]: 0.17; Difference of -log TCID50 /ml, Herpes virus (Herpes virus): > 2.50
O=C1O[C@H]([C@@H](O)CO)C(O)=C1O [L-Ascorbic acid, reference compound] |  | 125 µg/mL | 2000 µg/mL | 0.83 | 1.00 | 0 | 
CP(=O)(O)CC[C@H](N)C(=O)O [L-Methylphosphinoethyl glycine sodium salt] |  | > 1000 µg/mL | 4000 µg/mL | 2.00 |  |  | Difference of -log TCID50 /ml, Influenza virus (calculated from chick hemagglutination titer) (Influenza virus): > 7.3
NC(Cc1ccc(O)cn1)C(=O)O (racemic) [DL-p-Hydroxypyridylmethyl glycine] | 3.50 | > 1000 µg/mL | 1000 µg/mL | > 3.00 | > 2.83 | 0.50 | 
NC(Cc1ccc(F)cc1)C(=O)O (racemic) [DL-p-fluoro-phenyl alanine, reference compound] | 0 | 125 µg/mL | 250 µg/mL | 1.17 | 1.00 | 0 | 
NC(Cc1ccc(F)cc1)C(=O)O (centres unmarked) [p-fluoro-phenyl alanine] |  |  |  |  |  |  | antiviral activity (reported) (viruses): exhibits an antiviral activity
N[C@@H](CNC(=O)NO)C(=O)O [L-Hydroxyureidomethyl glycine] | 4.00 | > 1000 µg/mL | 4000 µg/mL | 0.50 |  |  | Difference of -log TCID50 /ml, Vaccinia virus [5, 15]: 3.50; Survival rate ([8]; 67 days, control 10%): 95%; Cumulative number of dying fish ([8]; 28 days, control 0): 0; Cumulative number of dying fish ([8]; 46 days, control 2): 0; Cumulative number of dying fish ([8]; 55 days, control 13): 0; Cumulative number of dying fish ([8]; 67 days, control 18): 1; Per cent of Inhibition (virus multiplication, HA units) ([9]; 100 mg/kg): 65%; Percent of inhibition of pock ([10]; 25 mg/kg): 33.7%; Percent of inhibition of pock ([10]; 50 mg/kg): 48.0%; Acute toxicity LD0 (mice): > 3000 mg/kg
NC(=O)NC[C@H](N)C(=O)O [L-Ureidomethyl glycine] |  |  |  |  |  |  | MDT (difference from control) ([11]; 500 mg per egg): -6.4; MDT (difference from control) ([11]; 1,000 mg per egg): > 4.6; MDT (difference from control) ([12]; 500 mg per egg): 3.2; MDT (difference from control) ([12]; 1,000 mg per egg): -6.4; Δlog MLD ([12]; in vivo): 0; MDT (difference from control) ([13]; 500 mg per egg): > 5.2; MDT (difference from control) ([13]; 1,000 mg per egg): -1.6; MDT (difference from control) ([14]; 500 mg per egg): > 13.8; MDT (difference from control) ([14]; 1,000 mg per egg): > 29.8
NC(=O)NO [Hydroxyurea, reference compound] |  |  |  |  |  |  | Percent of inhibition of pock ([10]; 50 mg/kg): 42.8%
COC(=O)[C@@H](N)Cc1ccc(O)cn1 [L-p-Hydroxypyridylmethyl glycine methylester hydrochloride] | 3.75 | 1000 µg/mL | 1500 µg/mL | 2.00 |  | 1.00 | Acute toxicity LD0 (mice): > 1000 mg/kg
O=C(O)C1NC2CC21 [L-3,5-Cyclo-2-pyrrolidylcarboxylic acid] | 3.50 | > 1000 µg/mL | 1000 µg/mL | 0.17 |  | 2.00 | 
CP(=O)(O)CC[C@H](N)C(=O)O [L-methylphosphinoethyl glycine, L-Methylphosphinoethyl glycine] |  |  |  |  |  |  | Per cent of Inhibition (virus multiplication, HA units) ([9]; 50 mg/kg): 67%; MDT (difference from control) ([11]; 250 mg per egg): > 30.6; MDT (difference from control) ([11]; 500 mg per egg): > 95.6; MDT (difference from control) ([12]; 250 mg per egg): 2.4; MDT (difference from control) ([12]; 500 mg per egg): > 45.6; MDT (difference from control) ([13]; 250 mg per egg): > 23.2; MDT (difference from control) ([13]; 500 mg per egg): 4.8; MDT (difference from control) ([14]; 250 mg per egg): > 4.8; MDT (difference from control) ([14]; 500 mg per egg): > 27.8
N[C@@H](Cc1ccc(O)cn1)C(=O)O | 3.75 | 500 µg/mL | 500 µg/mL | > 4.00 |  | 1.00 | Difference of -log TCID50 /ml, Vaccinia virus [5, 15]: > 1.97; Difference of -log TCID50 /ml, Herpes virus (Herpes virus): > 2.50; Per cent of Inhibition (virus multiplication, HA units) ([9]; 50 mg/kg): 52%; Per cent of Inhibition (virus multiplication, HA units) ([9]; 100 mg/kg): 77%; Percent of inhibition of pock ([10]; 6.2 mg/kg): 56.9%; MDT (difference from control) ([11]; 500 mg per egg): > 12.1; MDT (difference from control) ([11]; 1,000 mg per egg): > 19.2; Δlog MLD ([11]; in vivo): 0.5; MDT (difference from control) ([12]; 500 mg per egg): -3.1; MDT (difference from control) ([12]; 1,000 mg per egg): 14.8; MDT (difference from control) ([13]; 500 mg per egg): > 80.4; MDT (difference from control) ([13]; 1,000 mg per egg): > 16.8; MDT (difference from control) ([14]; 500 mg per egg): 3.2; MDT (difference from control) ([14]; 1,000 mg per egg): 0; Δlog MLD ([14]; in vivo): 1.0; Acute toxicity LD0 (mice): > 1000 mg/kg
NC(=O)NC[C@H](N)C(=O)O [L-Ureidomethyl glycine hydrochloride] | 3.75 | > 1000 µg/mL | 4000 µg/mL | > 4.00 | 0.33 |  | Difference of -log TCID50 /ml, Vaccinia virus [5, 15]: 1.17; Difference of -log TCID50 /ml, Herpes virus (Herpes virus): 1.50
NC[C@H](N)C(=O)O [L-Aminomethyl glycine hydrochloride] |  | > 1000 µg/mL | 4000 µg/mL | 1.50 | 0.67 | 1.00 | Difference of -log TCID50 /ml, Vaccinia virus [5, 15]: 0.33; Difference of -log TCID50 /ml, Herpes virus (Herpes virus): > 2.50
NC(=O)NCC(N)C(=O)O (racemic) [DL-Ureidomethyl glycine] | 3.50 | > 1000 µg/mL | 2000 µg/mL | 1.17 |  |  | 
Cl.NC12CC3CC(CC(C3)C1)C2 [1-Adamantanamine hydrochloride, reference compound] | 2.75 | 250 µg/mL | 31.2 µg/mL |  |  | > 2.00 | Per cent of Inhibition (virus multiplication, HA units) ([9]; 100 mg/kg): 76%
